Source: US20250345387A1, “CORONAVIRUS THERAPEUTICS AND TREATMENT METHODS” (priority 2020, published 2025)
“Also recorded” adds a separate entry of the source. Where no end group is shown, it is not given here.

Experiments:
[1] = tested on: histamine-induced vascular leakage; experiment: Cutaneous histamine challenge, Evans blue dye extravasation; type: in vivo, male FVB mice; details: for vascular leakage (extravassation of Evans blue dye) vs vehicle treated mice: prophylactic IP dose one hour prior to cutaneous histamine challenge
From the text: 10-week old male FVB mice were purchased from Jackson Laboratories. Mice were housed in a Vivarium on a standard light:dark cycle and were given free access to food and water. On day 0 mice were anesthetized with isoflurane and the entire dorsal area was shaved with an electric shaver. Residual hair was removed via application of depilatory cream. Residual cream was removed with sterile gauze and water. […] Immediately following Evans blue dye administration, and while still under anesthesia, a single PBS injection (dorsal, intradermal, 50 ul) and three equally spaced histamine injections (dorsal, intradermal, 1.25 ug contained in 50 ul) were applied. Once the intradermal injections were complete, the mice were removed from anesthesia and were placed back into their housing cages for 25 minutes.
Cardiac transperfusion After 25 minutes of exposure to histamine the mice were placed under anesthesia with an appropriate volume of 2.5% avertin (100 ul/10 g body weight via intraperitoneal injection). Once a deep plane of anesthesia was produced the mice were place and secured in a supine position, the chest was surgically opened, the heart was exposed and a catheter terminating in a 23 gauge needle was inserted into the left ventricle. Once the catheter was securely in place, a cut in the right atria was performed and 25 ml of cold PBS was delivered, via the catheter at 100 mmHg to flush out all intravascular Evans blue dye. Once a mouse was effectively perfused the dorsal skin was surgically removed. Four, 12 mm skin biopsies were collected (1PBS, 3 histamine) for each mouse using a standardized skin punch. In all cases, the biopsy that received PBS served as a baseline control for that individual mouse.
Quantification of Evans blue dye extravassation Skin biopsies were placed in labelled tubes and placed in a 60 degree Celsius oven for 16 hrs to removed all moisture. […] An Evans blue dye standard curve encompassing high and low experimental data points was constructed such that the amount of Evans blue dye extravassation (ug/g of skin) could be calculated.

MAPK (Erk2) = experiment: MAPK phosphorylation ELISA in HUVEC; type: cell-based, human; details: HUVEC stimulation
Method: HUVECs were cultured as above. Lyates were prepared in (1 mM EDTA, 0.5% Triton X-100, 6M urea, 5 mM NaF, 100 uM PMSF, 25 mM sodium pyrophosphate, 1 mM sodium orthovanadate, pH 7.2-7.4, 1× cOmplete™ mini EDTA-free protease inhibitor). BCA protein concentration kit was used to measure protein concentration of each lysate as per manufacturer's instructions (Thermo Scientific). Samples were subjected to ELISAs that measured phosphorylated MAPK and total MAPK levels according to the manufacturer's protocol (R&D Systems). 20 μg or 10 μg of protein from each sample was loaded in duplicate for phosphorylated MAPK and total MAPK readings respectively. Phosphorylated MAPK:total MAPK ratios were determined for each sample. The level of MAPK phosphorylation for all treatment groups were then normalized to that of the no treatment group (NT, EBM only) in each experiment.

[2] = tested on: Influenza A virus HKx31 (H3N2); type: in vivo, C57BL/6J mice; details: for overall survival of infected mice: ip
[3] = tested on: Influenza A virus HKx31 (H3N2); details: 100 ng/mouse/day; Sugiyama M G et al, 2015; cited from earlier work
Tie2 receptor [4] = molecular target: T1, Tie2 receptor (Homo sapiens, UniProt Q02763); experiment: Tie2 phosphorylation ELISA in HUVEC; type: cell-based; details: 15 minute stimulation
T1 construct: endogenous in cells; host or cells: HUVEC; HMVEC-tert (human dermal microvascular endothelial cells immortalized with telomerase)
T1 sequence (Q02763 23-1124): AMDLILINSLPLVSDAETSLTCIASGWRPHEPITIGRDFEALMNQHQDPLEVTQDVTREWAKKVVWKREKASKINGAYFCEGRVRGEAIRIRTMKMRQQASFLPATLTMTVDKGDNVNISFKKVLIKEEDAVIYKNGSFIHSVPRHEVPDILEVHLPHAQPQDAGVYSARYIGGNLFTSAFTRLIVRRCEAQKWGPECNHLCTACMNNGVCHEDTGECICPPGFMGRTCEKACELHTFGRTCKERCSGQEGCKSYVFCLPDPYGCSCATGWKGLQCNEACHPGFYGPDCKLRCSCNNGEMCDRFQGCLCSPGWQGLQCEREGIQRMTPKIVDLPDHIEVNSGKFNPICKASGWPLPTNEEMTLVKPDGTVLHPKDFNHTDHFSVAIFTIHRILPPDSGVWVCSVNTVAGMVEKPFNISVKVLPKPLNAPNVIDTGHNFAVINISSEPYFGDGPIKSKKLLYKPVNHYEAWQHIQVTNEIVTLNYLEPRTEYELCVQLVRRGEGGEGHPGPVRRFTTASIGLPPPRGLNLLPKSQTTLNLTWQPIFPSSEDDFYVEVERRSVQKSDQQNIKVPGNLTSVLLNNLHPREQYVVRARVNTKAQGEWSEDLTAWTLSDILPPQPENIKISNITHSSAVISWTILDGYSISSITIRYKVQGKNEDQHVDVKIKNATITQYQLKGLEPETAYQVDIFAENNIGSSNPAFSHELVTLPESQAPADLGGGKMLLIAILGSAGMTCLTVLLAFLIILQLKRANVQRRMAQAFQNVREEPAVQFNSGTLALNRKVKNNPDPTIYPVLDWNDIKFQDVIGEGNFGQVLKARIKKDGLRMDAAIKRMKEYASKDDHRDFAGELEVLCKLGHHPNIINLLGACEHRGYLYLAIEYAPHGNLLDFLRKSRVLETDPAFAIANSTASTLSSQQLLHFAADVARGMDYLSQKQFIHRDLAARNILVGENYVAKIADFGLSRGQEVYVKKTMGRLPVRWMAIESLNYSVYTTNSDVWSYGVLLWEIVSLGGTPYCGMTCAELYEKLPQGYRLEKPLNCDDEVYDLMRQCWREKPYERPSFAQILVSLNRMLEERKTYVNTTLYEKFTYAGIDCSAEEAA
Method: Human umbilical vein endothelial cells (HUVECs) were seeded on 100 mm tissue culture plates in complete endothelial basal media (EBM)(Lonza) supplemented with ‘EGM single quots’ (Lonza) in 20% O2, 5% CO2 and 37° C. humidified chamber according to manufacturer's recommendations. […] Following the 15 minute stimulation, cells were placed on ice and washed twice in ice cold PBS. Cell lysates were prepared for use in 1C12 lysis buffer (1% NP-40, 20 mM Tris (pH 8.0), 137 mM NaCl, 10% Glycerol, 2 mM EDTA, 1 mM activated sodium orthovanadate). BCA protein concentration kit was used to measure protein concentration of each lysate as per manufacturer's instructions (Thermo Scientific). Samples were subjected to ELISAs that measured phosphorylated Tie2 and total Tie2 levels according to the manufacturers protocol. 20 μg or 5 μg of protein from each sample was loaded in duplicate for phosphorylated Tie2 and total Tie2 readings respectively. Phosphorylated Tie2:total Tie2 ratios were determined for each sample. The level of Tie2 phosphorylation for all treatment groups were then normalized to that of the no treatment group (NT, complete EBM only) in each experiment.

[5] = Pharmacokinetic analysis after intravenous bolus in rats (plasma ELISA); type: in vivo, male Sprague Dawley rats
Method: Indicated amounts (ug/kg) of parental Vasculotide and MPA-Br were intravenously administered via bolus injection to male Sprague Dawley rats. […] The 120 ug/kg dose provided the greatest sensitivity of detection in these studies and as such, PK measures presented pertain to this particular dose level. […] MPA-Br PK was evaluated in a multi-dose (MD) intravenous setting at 120 ug/kg once every 24 hours for three consecutive days.

HUVEC [6] = experiment: COVID-19 patient serum induced HUVEC integrity destabilization, impedance (xCELLigence RTCA); type: cell-based, human
recombinant human IgG Fc = molecular target: T2, recombinant human IgG Fc (Homo sapiens, UniProt P01857); experiment: Tryptophan fluorescence spectroscopy binding to human IgG Fc (negative control); details: increasing ligand concentrations
T2 construct: purchased R&D Systems
From the text: Ligand and receptor interaction. […] Data was compiled using SoftMax and analyzed using Prism.

Tie2 receptor [7] = molecular target: T3, Tie2 receptor (Mus musculus, UniProt Q02858); experiment: Tie2 phosphorylation ELISA in primary mouse lung microvascular endothelial cells (MLMVEC); type: cell-based
T3 construct: host or cells: primary mouse lung microvascular endothelial cells (MLMVEC)
T3 sequence (Q02858 23-1122): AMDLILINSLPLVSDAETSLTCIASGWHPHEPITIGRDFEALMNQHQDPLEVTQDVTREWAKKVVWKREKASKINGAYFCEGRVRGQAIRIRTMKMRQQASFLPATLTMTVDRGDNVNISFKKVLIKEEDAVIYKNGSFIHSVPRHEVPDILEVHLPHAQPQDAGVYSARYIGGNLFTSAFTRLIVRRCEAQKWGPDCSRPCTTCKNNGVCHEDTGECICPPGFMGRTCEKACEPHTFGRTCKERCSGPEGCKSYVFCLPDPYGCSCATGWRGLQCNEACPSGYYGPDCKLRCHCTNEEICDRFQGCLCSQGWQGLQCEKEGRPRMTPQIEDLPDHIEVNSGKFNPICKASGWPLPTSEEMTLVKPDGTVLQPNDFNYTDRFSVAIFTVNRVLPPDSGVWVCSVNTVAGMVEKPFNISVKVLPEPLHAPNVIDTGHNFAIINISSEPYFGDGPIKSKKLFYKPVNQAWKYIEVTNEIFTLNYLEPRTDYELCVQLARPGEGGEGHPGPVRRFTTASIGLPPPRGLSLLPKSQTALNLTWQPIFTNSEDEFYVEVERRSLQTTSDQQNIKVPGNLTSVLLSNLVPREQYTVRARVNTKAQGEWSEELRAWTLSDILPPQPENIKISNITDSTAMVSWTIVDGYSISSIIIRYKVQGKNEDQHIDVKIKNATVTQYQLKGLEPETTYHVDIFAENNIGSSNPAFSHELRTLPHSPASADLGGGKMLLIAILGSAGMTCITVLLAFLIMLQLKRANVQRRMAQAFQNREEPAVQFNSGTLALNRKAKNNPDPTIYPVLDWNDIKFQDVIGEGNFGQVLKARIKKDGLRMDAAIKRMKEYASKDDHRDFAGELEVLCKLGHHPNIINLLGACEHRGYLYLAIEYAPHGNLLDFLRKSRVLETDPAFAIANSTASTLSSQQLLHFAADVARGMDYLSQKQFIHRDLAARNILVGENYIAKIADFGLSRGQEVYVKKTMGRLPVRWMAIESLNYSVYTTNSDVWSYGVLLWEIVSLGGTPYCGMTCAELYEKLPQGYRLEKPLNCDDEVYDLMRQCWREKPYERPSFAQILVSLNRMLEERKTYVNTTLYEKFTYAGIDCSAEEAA
Method: Primary mouse lung endothelial cells (Cell Biologics) were seeded on 100 mm tissue culture plates in complete endothelial basal media (EBM)(Lonza) supplemented with ‘EGM single quots’ (Lonza). […] Following the 15 minute stimulation, cells were placed on ice and washed twice in ice cold PBS. Cell lysates were prepared for use in IC12 lysis buffer (1% NP-40, 20 mM Tris (pH 8.0), 137 mM NaCl, 10% Glycerol, 2 mM EDTA, 1 mM activated sodium orthovanadate). BCA protein concentration kit was used to measure protein concentration of each lysate as per manufacturer's instructions (Thermo Scientific). Samples were subjected to ELISAs that measured phosphorylated Tie2 and total Tie2 levels according to the manufacturer's protocol (mouse Tie2, R&D Systems). 50 μg or 5 μg of protein from each sample was loaded in triplicate for phosphorylated Tie2 and total Tie2 readings respectively. Phosphorylated Tie2:total Tie2 ratios were determined for each sample. The level of Tie2 phosphorylation for all treatment groups was then normalized to that of the no treatment group (NT, complete EBM only) in each experiment.

HUVEC [8] = experiment: Thrombin- and TNF-α-induced HUVEC destabilisation, impedance (xCELLigence RTCA); type: cell-based, human; details: for total AUC normalised to vehicle control treatment: equivalent to CI for vehicle control cells
Tie2 receptor [9] = experiment: Tie2 phosphorylation ELISA in primary cynomolgus monkey glomerular endothelial cells; type: cell-based; details: positive control
Method: Primary cynomolgus monkey glomerular endothelial cells (Cell Biologics) were cultured according to details provided above for HMVEC^tert. Tie2 activation studies performed on primary cynomolgus monkey glomerular endothelial cells were performed according to approaches detailed above for the rat primary glomerular endothelial cell studies.

Tie2 receptor [10] = molecular target: T4, Tie2 receptor (Rattus norvegicus, UniProt A0A8I5ZW61); experiment: Tie2 phosphorylation ELISA in primary rat glomerular endothelial cells; type: cell-based; details: positive control
T4 construct: host or cells: primary rat glomerular endothelial cells
T4 sequence (A0A8I5ZW61 20-1121): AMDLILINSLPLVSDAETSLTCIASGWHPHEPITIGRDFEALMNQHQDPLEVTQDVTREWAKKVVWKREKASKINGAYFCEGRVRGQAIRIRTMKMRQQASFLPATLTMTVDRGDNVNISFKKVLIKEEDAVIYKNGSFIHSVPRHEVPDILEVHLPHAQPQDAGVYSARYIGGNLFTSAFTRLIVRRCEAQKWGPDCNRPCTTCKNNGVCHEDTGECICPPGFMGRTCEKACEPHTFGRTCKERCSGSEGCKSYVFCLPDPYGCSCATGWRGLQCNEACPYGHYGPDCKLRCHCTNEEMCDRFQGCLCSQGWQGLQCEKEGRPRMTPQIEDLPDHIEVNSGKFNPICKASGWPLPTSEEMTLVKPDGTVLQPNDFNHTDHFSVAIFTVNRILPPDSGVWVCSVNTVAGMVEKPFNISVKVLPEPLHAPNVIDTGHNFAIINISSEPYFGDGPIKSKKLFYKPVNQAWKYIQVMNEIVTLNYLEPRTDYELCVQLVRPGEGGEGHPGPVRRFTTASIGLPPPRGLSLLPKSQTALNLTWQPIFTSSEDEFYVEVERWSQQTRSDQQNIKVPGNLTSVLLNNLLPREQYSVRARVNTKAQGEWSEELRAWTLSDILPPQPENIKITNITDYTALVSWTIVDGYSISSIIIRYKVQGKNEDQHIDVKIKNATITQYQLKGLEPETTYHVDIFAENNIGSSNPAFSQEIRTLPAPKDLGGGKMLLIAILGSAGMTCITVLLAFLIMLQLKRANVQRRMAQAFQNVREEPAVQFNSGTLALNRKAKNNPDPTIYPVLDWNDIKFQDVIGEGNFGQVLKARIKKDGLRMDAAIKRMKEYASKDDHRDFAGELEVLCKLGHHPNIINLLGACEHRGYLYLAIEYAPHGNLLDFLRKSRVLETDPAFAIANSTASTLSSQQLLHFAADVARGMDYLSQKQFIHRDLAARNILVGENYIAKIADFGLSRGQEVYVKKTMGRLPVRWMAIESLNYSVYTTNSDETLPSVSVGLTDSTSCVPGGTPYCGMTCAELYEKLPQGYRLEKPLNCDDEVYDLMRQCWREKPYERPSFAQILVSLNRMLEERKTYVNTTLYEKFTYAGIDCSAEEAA
Method: Rat primary glomerular endothelial cells (Cell Biologics) were grown in Complete rat endothelial cell medium/w kit (Cell Biologics) in 20% O2, 5% CO2 and 37° C. humidified chamber and split 1:3 once reaching 80-90% confluency. To examine the activation of Tie2 by MPA-Br in rat kidney glomerular endothelial cells, 95-100% confluent cells were stimulated with indicated concentrations of the test agent in serum-containing media for 15 minutes. Human Ang-1 (R&D Systems) was used as positive control. Cell lysates were collected using lysis buffer IC12 (detailed above) recommended in Human phospho-Tie-2 ELISA kit (R&D Systems), tyrosine-phosphorylated Tie2 and total Tie2 were measured using ELISA (Human phospho-Tie2 and total-Tie2 ELISA kits, R&D Systems) with substitution of capture antibody validated for rat Tie2. Mouse anti-Tie2 antibody (BD Pharmingen™) and rabbit TEK polyclonal antibody (MyBioSource) were used as capture antibody in pTie2 and total Tie2 ELISA, respectively. The level of Tie2 phosphorylation for all treatment groups was then normalized to that of the no treatment group (NT, complete rat endothelial cell medium) in each experiment.

Tie2 receptor [11] = experiment: Tie2 phosphorylation ELISA in primary canine aortic endothelial cells; type: cell-based; details: positive control
Method: Canine primary aortic endothelial cells (Cell Biologics) were grown in Complete canine endothelial cell medium/w kit (Cell Biologics) in 20% O2, 5% CO2 and 37° C. humidified chamber and split 1:3 once reaching 80-90% confluency. Tie2 activation studies performed on primary cynomolgus monkey glomerular endothelial cells were performed according to approaches detailed above for the rat primary glomerular endothelial cell studies.

[12] = 120 ug/kg intravenous bolus, parental Vasculotide vs MPA-Br
[13] = day 6, MPA-Br 200 ng/day vs parental Vasculotide 500 ng

parental Vasculotide: 10 kDa 4-armed polyethylene glycol with Tie2 binding peptides (CHHHRHSF) attached via maleimide; mimics Ang1 [reference compound]
reduction of histamine-induced vascular leakage compared with MPA-Br ([1]; parental Vasculotide 500 ng/mouse vs MPA-Br at equal dose or 125 ng/mouse): performed less well | vascular leakage (extravassation of Evans blue dye) vs vehicle treated mice [1]: significantly less vascular leakage | activation of MAPK (phosphorylated MAPK:total MAPK) (MAPK (Erk2)): downstream activation of MAPK | activity score ([2]; mouse, in vivo): significantly improved | lung oxygenation (SpO2) ([2]; mouse, in vivo): significantly improved | thermal regulation (body temperature) ([2]; mouse, in vivo): significantly improved | overall survival of infected mice ([2]; mouse, in vivo): significantly improved overall survival | survival following infection with X31 influenza [3]: ineffective at enhancing survival

MPA-Br: T7 peptide linked via 3-mercaptopropionic acid to a bromoacetimide-activated 10K PEG tetramer through a linear sulfane moiety (HHHRHSF; not fully specified (N-terminus); also: linked via 3-mercaptopropionic acid to bromoacetimide-activated 10K PEG tetramer (sulfane), site not given here)
doses significantly activating Tie2 (pTie2/total Tie2 vs no treatment) (Tie2 receptor [4]): 10-100 ng | drug accumulation, multi-dose (MD) PK vs single dose ([5]; 120 ug/kg IV once every 24 hours for three consecutive days): no drug accumulation | clearance rate [5, 12]: similar | volume of distribution [5, 12]: similar | CI over time after COVID-19 serum challenge (HUVEC [6]): restoration of CI loss | AUC normalised to vehicle control (HUVEC [6]; COVID-19 patient sample IgM, 0.5 to 5 ng/mL MPA-Br): statistically significant increase in normalized CI | cell index difference between cells incubated with serum+AV-001 and serum+vehicle control (HUVEC [6]; COVID-19 serum (IgG8, IgM5, IgM6) compared to HD): Significant differences | total AUC normalised to vehicle control treatment (HUVEC [6]; COVID-19 serum IgG8 and IgM6 (FIG. 10D-E), both AV-001 doses): statistically significant increase in CI | total AUC normalised to vehicle control treatment (HUVEC [6]; serum HD1, high dose 5 ng/mL): statistically significant increase in normalised cell impedance | vascular leakage (extravassation of Evans blue dye) vs vehicle treated mice [1]: significantly less vascular leakage | activation of MAPK (phosphorylated MAPK:total MAPK) (MAPK (Erk2)): downstream activation of MAPK | arterial oxygenation [2, 13]: superiority to parental Vasculotide | protection from wasting (fraction of initial body weight) [2, 13]: superiority to parental Vasculotide | activity score ([2]; mouse, in vivo): significantly improved | all study endpoints compared to parental Vasculotide ([2]; mouse, in vivo): performed equal, or better than parental Vasculotide | lung oxygenation (SpO2) ([2]; mouse, in vivo): significantly improved | thermal regulation (body temperature) ([2]; mouse, in vivo): significantly improved | overall survival of infected mice ([2]; mouse, in vivo): significantly improved overall survival | binding to recombinant human IgG Fc (fluorescence intensity) (recombinant human IgG Fc): no dose dependent increase in fluorescence intensity; also recorded: No saturation of binding | fold lower concentration for statistically significant Tie2 activation vs parental Vasculotide (Tie2 receptor [7]): 10 fold | normalized CI overtime compared to untreated HUVEC (HUVEC [8]; TNF-a challenge (0.5 ng/mL), MPA-Br 5 ng/mL): significant increase in normalized CI | total AUC normalised to vehicle control treatment (HUVEC [8]; TNF-a challenged cells, MPA-Br 5 ng/mL): statistically significant increase in normalized CI | normalized CI overtime compared to untreated HUVEC (HUVEC [8]; thrombin challenge (0.25 ng/mL), MPA-Br 0.5 to 5 ng/mL): significant increase in normalized CI | total AUC normalised to vehicle control treatment (HUVEC [8]; thrombin challenged cells, MPA-Br 0.5 to 5 ng/mL): statistically significant increase in normalized CI

B1: human recombinant Ang1: Human recombinant angiopoietin 1, positive control for Tie2 and MAPK activation (protein)
chain: SNQRRSPENSGRRYNRIQHGQCAYTFILPEHDGNCRESTTDQYNTNALQRDAPHVEPDFSSQKLQHLEHVMENYTQWLQKLENYIVENMKSEMAQIQQNAVQNHTATMLEIGTSLLSQTAEQTRKLTDVETQVLNQTSRLEIQLLENSLSTYKLEKQLLQQTNEILKIHEKNSLLEHKILEMEGKHKEELDTLKEEKENLQGLVTRQTYIIQELEKQLNRATTNNSVLQKQQLELMDTVHNLVNLCTKEGVLLKGGKREEEKPFRDCADVYQAGFNKSGIYTIYINNMPEPKKVFCNMDVNGGGWTVIQHREDGSLDFQRGWKEYKMGFGNPSGEYWLGNEFIFAITSQRQYMLRIELMDWEGNRAYSQYDRFHIGNEKQNYRLYLKGHTGTAGKQSSLILHGADFSTKDADNDNCMCKCALMLTGGWWFDACGPSNLNGMFYTAGQNHGKLNGIKWHYFKGPSYSLRSTTMMIRPLDF
Tie2 phosphorylation compared to no treatment (NT) (Tie2 receptor [9]): significant increase in baseline Tie2 phosphorylation | Tie2 phosphorylation compared to no treatment (NT) (Tie2 receptor [10]): significant increase in baseline Tie2 phosphorylation | Tie2 phosphorylation compared to no treatment (NT) (Tie2 receptor [11]): significant increase in baseline Tie2 phosphorylation
